Experimental findings from ChEMBL document CHEMBL3507680, “University of Dundee, Gates Library screen for HepG2 cell viability” are described below.

This series is described as follows: Human HepG2 cell viability assay in 384 well format. Type of series: toxicity, cell-based. As to conditions: HepG2 cells, read-out: Inhibition. Set-up: dose 125 nL, time 70.5 hour; cytotoxicity at 70.5 h: concentration not given beside the values.
`Cc1cccnc1NC(=O)CSc1ccc2c(c1)OCCO2`: the cytotoxicity at 70.5 h is -9.85%.

For the molecule `CNC(=O)c1ccccc1NCc1ncnn1C`, the cytotoxicity at 70.5 h was -96.8%.

As for `CC(Nc1ccc(F)cc1)c1nnnn1-c1ccccc1` (centres undefined), the cytotoxicity at 70.5 h was -109%.

As to `COc1ccc(C(N)=O)cc1NCc1ncc(C(C)(C)C)o1`, the cytotoxicity at 70.5 h is -81.1%.

For `Cc1nc(N2CCCC2)ccc1NCc1ccccn1`, the cytotoxicity at 70.5 h is -96.9%.

Consider `CCc1ccc(NC(=O)c2ncc(C(N)=O)cc2Cl)cc1F`, for which the cytotoxicity at 70.5 h was -107%.

`Cc1cc(NC(=O)NC2CCN(C(C)C)CC2)c2ncccc2c1`: the cytotoxicity at 70.5 h was -85.3%.

Consider `CC(C)n1cnnc1C1CCCN(S(=O)(=O)c2c[nH]cn2)C1` (centres undefined), for which the cytotoxicity at 70.5 h was -78.9%.

In the case of `CCc1nn(C)c2[nH]nc(NC(=O)c3cccnc3NC(C)C)c12`, the cytotoxicity at 70.5 h was -50.3%.

With `CCCNC(=O)c1cccc(CNCc2csc(C(C)(C)C)n2)c1`, the cytotoxicity at 70.5 h was -44.8%.

Consider `CN(C)CCN(Cc1cccc(F)c1)C(=O)c1ccc2nccn2c1`, for which the cytotoxicity at 70.5 h was -43.4%.

Consider `c1ccc(N2CCCC2)c(NCc2ccncc2)c1`, for which the cytotoxicity at 70.5 h is -39.9%.

For the molecule `CS(=O)(=O)Cc1noc(CN2CCN(c3ccccc3Cl)CC2)n1`, the cytotoxicity at 70.5 h was -76.6%.

As for `OC(COc1ccccc1Br)COC1CCOCC1` (centres undefined), the cytotoxicity at 70.5 h turned out to be 0.581%.

As for `CC(=O)NCCc1ccc(S(=O)(=O)Nc2cc(F)ccc2C)s1`, the cytotoxicity at 70.5 h came to 3.63%.

In the case of `CC(C)c1ncc(Cl)c(C(=O)N2CCN(C3CC3)CC2)n1`, the cytotoxicity at 70.5 h is -7.86%.

With `CCN(C(=O)Nc1nncs1)C(C)c1cccc(OC)c1` (centres undefined), the cytotoxicity at 70.5 h was -9.86%.

Turning to `CCc1nc(CN2CCCCC2C(N)=O)cs1` (centres undefined), the cytotoxicity at 70.5 h was -2.28%.

Turning to `CC(C)N(CCCNC(=O)C1CC1)S(C)(=O)=O`, the cytotoxicity at 70.5 h is -4.77%.

As to `CCOCCN1CCN(CC(O)c2ccc(F)cc2)CC1` (centres undefined), the cytotoxicity at 70.5 h is -6.89%.

Turning to `CN1CCN(c2ccccc2NC(=O)NCC[S+](C)[O-])CC1` (centres undefined), the cytotoxicity at 70.5 h was -7.57%.

For the molecule `CCOCCC(=O)Nc1ccnn1-c1ccc(Cl)cc1`, the cytotoxicity at 70.5 h was -3.17%.

On to `COc1ccc(CSc2nnc(N)n2C2CC2)cc1Cl`, for which the cytotoxicity at 70.5 h is -8.32%.

As to `CN1CCN(c2ccc(F)cc2NC(=O)NCC[S+](C)[O-])CC1` (centres undefined), the cytotoxicity at 70.5 h was -2.15%.

`CN1CCN(c2ccccc2NC(=O)c2ccco2)CC1`: the cytotoxicity at 70.5 h is -6.77%.

For the molecule `O=C1CN(C(=O)CN(CC2CCC2)CC(F)(F)F)CCN1`, the cytotoxicity at 70.5 h was -9.35%.

For the molecule `CCc1nc(C(=O)N2CCN(C)c3ccccc32)c[nH]1`, the cytotoxicity at 70.5 h is -9.6%.

Take `CN(Cc1nnn(CC2CCC2)n1)C(=O)c1ccccc1`: the cytotoxicity at 70.5 h is -2.78%.

Regarding `Cc1cnc(CCN(C)C(=O)c2ccc(O)nc2C)s1`, the cytotoxicity at 70.5 h was -2.62%.

As for `Cc1cnc(CCN(C)C(=O)c2cccc(C)c2O)s1`, the cytotoxicity at 70.5 h was -5.87%.

As to `CCOc1ccc(CSC(C)c2nc(C)no2)nc1` (centres undefined), the cytotoxicity at 70.5 h was -6.64%.

`CCc1nc(CN2CCCC2C(=O)NC2CC2)cs1` (centres undefined): the cytotoxicity at 70.5 h is -7.43%.

For `CN1CCN(c2ncc(CNCCCc3cccc(F)c3)cn2)CC1`, the cytotoxicity at 70.5 h is 25.4%.

In the case of `COc1c(C)cnc(CN2CCCC(c3noc(C4CC4)n3)C2)c1C` (centres undefined), the cytotoxicity at 70.5 h came out at 7.81%.

Consider `Cc1ccc(S(=O)(=O)N(CC2CCOC2)C2CC2)cc1N(C)C` (centres undefined), for which the cytotoxicity at 70.5 h amounted to 0.338%.

`N#Cc1ccc(CN(CCF)Cc2cccc(F)c2)cc1`: the cytotoxicity at 70.5 h was 6.81%.

With `CSCCC(NC(=O)C1CC1)C(=O)N(C)Cc1ccsc1` (centres undefined), the cytotoxicity at 70.5 h turned out to be 10.7%.

For the molecule `CN(Cc1nc(N)nc(N(C)C)n1)Cc1cccc2ccccc12`, the cytotoxicity at 70.5 h was -10.6%.

As to `CNC(=O)NC(=O)CN(Cc1ccc(C#N)cc1)Cc1cccc(F)c1`, the cytotoxicity at 70.5 h is -2.77%.

Regarding `O=C(CCN1CCOCC1)Nc1cccc(CNCc2cccs2)c1`, the cytotoxicity at 70.5 h is -8.33%.

Take `Cc1ccc(CNCc2cccc(NC(=O)CCN3CCOCC3)c2)s1`: the cytotoxicity at 70.5 h was -5.6%.

Regarding `COc1ccc(CCn2cnc(C#N)n2)cc1`, the cytotoxicity at 70.5 h is -12.6%.

In the case of `CC(C)N(Cc1ccccn1)C(=O)CCC(=O)c1ccccc1`, the cytotoxicity at 70.5 h was -7.32%.

With `COCCOCC(=O)Nc1nc2c(OC)cc(F)cc2s1`, the cytotoxicity at 70.5 h is -8.97%.

For the molecule `Cc1nc(C(C)C)sc1C(=O)NS(=O)(=O)c1ccc(C#N)cc1`, the cytotoxicity at 70.5 h is -9.15%.

Consider `O=C1NCCN1C1CCN(Cc2ccccn2)CC1`, for which the cytotoxicity at 70.5 h was -5.43%.

As for `Cc1nc(CN(C)C(=O)Nc2cnn(CC3CCCO3)c2)cs1` (centres undefined), the cytotoxicity at 70.5 h is -1.56%.

`CN(CCOc1cccc(CNC(=O)C2CC2)c1)C1CCOCC1`: the cytotoxicity at 70.5 h was -8.5%.

With `CCOCC(O)CN1CCN(C(=O)c2ccnc(N(C)C)c2)CC1` (centres undefined), the cytotoxicity at 70.5 h was -6.8%.

In the case of `CCNC(=O)N1CCCCC1CCO` (centres undefined), the cytotoxicity at 70.5 h amounted to 12.6%.

Take `CN(Cc1cnccn1)C(=O)c1ccnc(OC2CCC2)c1`: the cytotoxicity at 70.5 h was -9.6%.

Regarding `Cc1cnn(CC2CCCN2CC(=O)N(C)Cc2ccc(C)o2)c1` (centres undefined), the cytotoxicity at 70.5 h was -7.64%.

As for `CCOCC(O)CN1CCN(C(=O)c2cccc(F)c2)CC1` (centres undefined), the cytotoxicity at 70.5 h is -7.93%.

In the case of `O=C(CN1CCc2ccccc21)Nc1ccc(OC(F)F)cc1`, the cytotoxicity at 70.5 h amounted to 9.55%.

Consider `O=C1CN(Cc2nnc(-c3ccc(Br)cc3)o2)CCN1`, for which the cytotoxicity at 70.5 h stood at 4.44%.

For `Cn1cnc(S(=O)(=O)N2CCCC2)c1Cl`, the cytotoxicity at 70.5 h was -10.3%.

For the molecule `CCN1CCN(S(=O)(=O)c2ncn(C)c2Cl)CC1`, the cytotoxicity at 70.5 h is -8.62%.

For the molecule `CC(CNC(=O)c1ccc(F)cc1Cl)N1CCCC1` (centres undefined), the cytotoxicity at 70.5 h was -7.32%.

Consider `O=C1CN(Cc2nnc(-c3ccccc3Br)o2)CCN1`, for which the cytotoxicity at 70.5 h is -6.27%.

For the molecule `O=C(NCc1ccoc1)Nc1ccc(CN2CCOC2=O)cc1`, the cytotoxicity at 70.5 h came to 19%.

Take `NC(=O)CN1CCCN(C(=O)c2ccn(-c3ccccc3)n2)CC1`: the cytotoxicity at 70.5 h is -3.77%.

Consider `OC1CCN(Cc2cc3c(cc2Br)OCCO3)CC1`, for which the cytotoxicity at 70.5 h came to 0.754%.

Turning to `CCc1nnc2n1CCN(C(=O)c1csc(-c3cnn(C)c3)n1)C2`, the cytotoxicity at 70.5 h is -6.07%.

As to `COCCN(Cc1ccc(F)cc1Cl)C(=O)c1ccc(=O)[nH]n1`, the cytotoxicity at 70.5 h was -3.15%.

Consider `O=C(NCCO)Nc1cccc(Cl)c1SC(F)F`, for which the cytotoxicity at 70.5 h is 16.9%.

For `COc1ccccc1OCC(=O)Nc1ncccc1OC(F)F`, the cytotoxicity at 70.5 h is -7.67%.

With `Cc1cc(CN2CCc3nn(C)c(=O)cc3C2)on1`, the cytotoxicity at 70.5 h is 3.7%.

For the molecule `Cn1c(CNc2c(F)cccc2-n2cccn2)cc(=O)n(C)c1=O`, the cytotoxicity at 70.5 h was 0.334%.

For `Cc1ccc(CC(=O)N2CCOC(c3nc(C)n[nH]3)C2)cn1` (centres undefined), the cytotoxicity at 70.5 h is -4.16%.

Turning to `O=C(CSc1ccc2c(c1)OCCO2)NS(=O)(=O)C1CCCCC1`, the cytotoxicity at 70.5 h is 0.938%.

For `Cc1ccccc1S(=O)(=O)NC(=O)CSc1ccc2c(c1)OCCO2`, the cytotoxicity at 70.5 h is -4.74%.

As to `O=C(Nc1ccnc(OC2CCOC2)c1)c1cc(F)ccc1F` (centres undefined), the cytotoxicity at 70.5 h is 14.1%.

Consider `CCNS(=O)(=O)c1ccc(C)c(C(=O)N(C)Cc2ccco2)c1`, for which the cytotoxicity at 70.5 h was -5.04%.

`Cc1cnn(CCC(=O)N2CCOC(c3nc(C(C)(C)C)n[nH]3)C2)c1` (centres undefined): the cytotoxicity at 70.5 h came out at 15.8%.

For `Cc1occc1C(=O)Nc1ccnc(OC2CCOC2)c1` (centres undefined), the cytotoxicity at 70.5 h was -7.45%.

Regarding `O=C(c1ccc(Br)s1)N1CCN(Cc2ccc(OC(F)(F)F)cc2)CC1`, the cytotoxicity at 70.5 h turned out to be 1.44%.

In the case of `CCc1nc(CN2CCCN(Cc3cnn(C)c3)CC2)no1`, the cytotoxicity at 70.5 h was found to be 0.0385%.

Take `O=C(c1cc(Cl)cc(Cl)c1)N1CCN(c2nccs2)CC1`: the cytotoxicity at 70.5 h was -1.02%.

Take `CC(C)NC(=O)NCCCc1cc(N)n(-c2ccccc2)n1`: the cytotoxicity at 70.5 h was found to be 15.9%.

For the molecule `Nc1cc(CCCNC(=O)NC2CC2)nn1-c1ccccc1`, the cytotoxicity at 70.5 h is -2.83%.

With `O=C(c1cc(Cl)c2c(c1)OCO2)N1CCN(c2nccs2)CC1`, the cytotoxicity at 70.5 h is 1.39%.

Take `Cc1nn(C)c(N(C)C)c1CNCC(O)COc1ccc(F)cc1` (centres undefined): the cytotoxicity at 70.5 h was 2.45%.

`CC1(NC(=O)Cc2csc(C(C)(C)C)n2)CCS(=O)(=O)C1` (centres undefined): the cytotoxicity at 70.5 h was 18.9%.

On to `COc1ccc(NC(=O)NC(C)(C)c2noc(C)n2)cc1`, for which the cytotoxicity at 70.5 h was determined as 0.532%.

`CC(C#N)CSc1ccccc1NCC(=O)NCc1ccccc1` (centres undefined): the cytotoxicity at 70.5 h was 4.47%.

As to `CC(C)CNC(=O)NC(=O)CNc1ccccc1SCC(C)C#N` (centres undefined), the cytotoxicity at 70.5 h was -2.52%.

With `Cc1cnn(CC2CCCN2Cc2coc(-c3cccs3)n2)c1` (centres undefined), the cytotoxicity at 70.5 h is -0.977%.

As for `COCC(NC(=O)c1ccc[nH]1)c1cccc(C(F)(F)F)c1` (centres undefined), the cytotoxicity at 70.5 h was 17.9%.

As to `CCn1nc2c(cc1=O)CN(Cc1nc(N)c3ccccc3n1)CC2`, the cytotoxicity at 70.5 h is -2.07%.

Turning to `NC(=O)CCOc1nc(-c2ccccc2Cl)no1`, the cytotoxicity at 70.5 h was found to be 16.5%.

Turning to `O=C(NCC(F)F)N1CCC(n2ccc(C(F)(F)F)n2)CC1`, the cytotoxicity at 70.5 h amounted to 2.24%.

With `CN(CCC(F)(F)F)C(=O)[C@H]1CSCN1C(=O)OC(C)(C)C`, the cytotoxicity at 70.5 h was -1.73%.

As to `CCOCCN1CCN(Cc2nnc(C3CC3)o2)CC1CC` (centres undefined), the cytotoxicity at 70.5 h amounted to 13.5%.

`COc1ccc(NC(C)C(=O)N2CCN(Cc3ccccc3)CC2)cn1` (centres undefined): the cytotoxicity at 70.5 h is -10%.

In the case of `CCc1ncc2c(n1)CN(Cc1nnc(C)o1)CC2`, the cytotoxicity at 70.5 h was -8.24%.

With `Cc1cnn(CC2CCCN2Cc2coc(-c3ccccc3)n2)c1` (centres undefined), the cytotoxicity at 70.5 h was found to be 13.5%.

Take `CCc1noc(C(C)N(C)CC(=O)Nc2cccc(C)n2)n1` (centres undefined): the cytotoxicity at 70.5 h is -6.94%.

Consider `CCc1nc(CN2CCCC(N(C)Cc3cnn(C)c3)C2)no1` (centres undefined), for which the cytotoxicity at 70.5 h was -10.2%.

Regarding `CN(Cc1cccs1)C(=O)CN1CCCC1Cn1cncn1` (centres undefined), the cytotoxicity at 70.5 h came to 2.88%.

Take `CCc1nc(CN2CCCN(c3ncnc4ccccc34)CC2)no1`: the cytotoxicity at 70.5 h was determined as 40.8%.

As for `CC(C)c1noc(CN(Cc2ccccc2F)C2CC2)n1`, the cytotoxicity at 70.5 h is -12%.

As to `COc1cc(NC(=O)c2cc(C)sc2C)c(C(=O)N(C)C)cc1OC`, the cytotoxicity at 70.5 h was -19.4%.

Consider `CC(C)Cc1noc(CN2CCC(NC(=O)c3cccs3)CC2)n1`, for which the cytotoxicity at 70.5 h was -8.58%.

Turning to `Cc1nn(C)c(N(C)C)c1CNCC(O)COc1ccccc1` (centres undefined), the cytotoxicity at 70.5 h is -0.0724%.
